The source of these data is ChEMBL document CHEMBL1201862, “PubChem BioAssay data set” (2004).

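A five-concentration, 48-hour dose response in 96-well plates underlies each endpoint, interpolated linearly between surrounding concentrations. The concentration for 50% growth inhibition is given as GI50.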 Calls of active or inactive are those of the source. No stated cut-off is given here; in the data, active = GI50 up to about 1.1 µM and inactive = higher.

Some test systems named below: T47D; UACC-257; ACHN; Malme-3M; Hs-578T; UO-31; DU-145; NCI-H522; MOLT-4; LOX IMVI; NCI-H460; HCT-116; RXF 393; HL-60; HT-29; SK-OV-3; PC-3; KM12; SK-MEL-5; BT-549.
Common to all, as to assay: growth of human tumour cells (NCI), 48 h

As for `C[N+](C)(C)CC(=O)N/N=C\c1c(O)ccc2ccccc12`, the GI50 in the assay with T47D is 32.9 µM (inactive); in the assay on UACC-257 it was 18.7 µM (inactive); in the assay on ACHN, 32.7 µM (inactive); in the assay with Malme-3M it was 11.9 µM (inactive); with Hs-578T it was 14.4 µM (inactive); in the assay with UO-31, 33.3 µM (inactive). In addition, the GI50 is 23.8 µM (inactive) in the assay with DU-145; 16.2 µM (inactive) in the assay on NCI-H522; 9.08 µM (inactive) in the assay on MOLT-4; 32.7 µM (inactive) with LOX IMVI; 18.1 µM (inactive) with NCI-H460; 42.6 µM (inactive) in the assay on HCT-116. Further, the GI50 was 20.9 µM (inactive) with RXF 393; 14.2 µM (inactive) with HL-60; > 100 µM (inactive) in the assay on HT-29; 34.8 µM (inactive) with SK-OV-3; 37.6 µM (inactive) in the assay with PC-3; 32.4 µM (inactive) with KM12. Besides, in the assay with SK-MEL-5, the GI50 is 16.2 µM (inactive).

Turning to `CC1=CC(=O)/C(=C/NC(=S)NCCc2ccccc2)C(=O)O1`, the GI50 with T47D, in the assay with UACC-257, in the assay on ACHN, in the assay with UO-31, in the assay on DU-145 and in the assay with MOLT-4 was > 100 µM (inactive) each time. Also, the GI50 is 30.1 µM (inactive) with LOX IMVI; > 100 µM (inactive) in the assay on NCI-H460; 27.2 µM (inactive) with HCT-116; > 100 µM (inactive) with HL-60; > 100 µM (inactive) in the assay with HT-29; > 100 µM (inactive) with SK-OV-3. Also, the GI50 in the assay with PC-3 is > 100 µM (inactive); in the assay with BT-549, 53.7 µM (inactive); in the assay on KM12, > 100 µM (inactive); in the assay on SK-MEL-5, > 100 µM (inactive).

For `O=S(=O)(c1ccccc1)N1CN2CN(C1)CN(S(=O)(=O)c1ccccc1)C2`, the GI50 is > 100 µM (inactive) in the assay with UACC-257; 79.8 µM (inactive) in the assay with ACHN; > 100 µM (inactive) in the assay on UO-31; > 100 µM (inactive) in the assay with DU-145; > 100 µM (inactive) with LOX IMVI; > 100 µM (inactive) with NCI-H460. Besides, the GI50 is > 100 µM (inactive) in the assay on HCT-116; 55.7 µM (inactive) with RXF 393; 26.6 µM (inactive) in the assay on HL-60; > 100 µM (inactive) in the assay with HT-29; > 100 µM (inactive) in the assay with SK-OV-3; > 100 µM (inactive) with PC-3. Besides, the GI50 in the assay on BT-549, in the assay with KM12 and in the assay on SK-MEL-5 was > 100 µM (inactive) throughout.

With `COc1ccc(OC)c2c1C=C[C@H](C1(C)SCCS1)C2C(C)=O` (some centres not stated), the GI50 in the assay with T47D was 24.2 µM (inactive); in the assay with UACC-257 it was 35.6 µM (inactive); in the assay with ACHN it was 35.2 µM (inactive); in the assay on Malme-3M it was 20.7 µM (inactive); in the assay with Hs-578T, 17.2 µM (inactive); in the assay on UO-31, 24.2 µM (inactive). In addition, the GI50 in the assay on DU-145 is 28.9 µM (inactive); with NCI-H522, 13.9 µM (inactive); in the assay with MOLT-4 it was 19.7 µM (inactive); in the assay on LOX IMVI it was 9.84 µM (inactive); with NCI-H460 it was 27.9 µM (inactive); with HCT-116, 23 µM (inactive). Besides, the GI50 in the assay with RXF 393 was 29.4 µM (inactive); with HL-60, 18.2 µM (inactive); in the assay on HT-29, 18.7 µM (inactive); with SK-OV-3 it was 20.4 µM (inactive); with PC-3, 26.7 µM (inactive); in the assay with KM12 it was 32.4 µM (inactive). Also, the GI50 in the assay with SK-MEL-5 was 17.2 µM (inactive).

Turning to `CSc1nc(-c2ccccc2)nc(C(C#N)C#N)n1`, the GI50 in the assay with T47D is > 100 µM (inactive); with UACC-257 it was > 100 µM (inactive); in the assay on ACHN it was > 100 µM (inactive); in the assay with Malme-3M, > 100 µM (inactive); in the assay with Hs-578T, > 100 µM (inactive); with UO-31 it was 61.2 µM (inactive). The GI50 in the assay on DU-145, in the assay with NCI-H522, in the assay on MOLT-4, with LOX IMVI, in the assay with HCT-116 and with RXF 393 was > 100 µM (inactive) each time. Besides, the GI50 in the assay with HL-60, in the assay with HT-29, in the assay on SK-OV-3, with PC-3, with KM12 and with SK-MEL-5 was > 100 µM (inactive) each time.

`Cc1ccc(Nc2nc(C)c(C(=O)CC(=O)C(=O)Nc3ccc(Cl)cc3)s2)cc1`: the GI50 in the assay with T47D is > 100 µM (inactive); in the assay on UACC-257 it was > 100 µM (inactive); with ACHN, > 100 µM (inactive); with Malme-3M, 76.6 µM (inactive); in the assay with Hs-578T, > 100 µM (inactive); with UO-31 it was > 100 µM (inactive). Moreover, the GI50 in the assay with DU-145, in the assay with NCI-H522, in the assay with MOLT-4, with LOX IMVI, in the assay on NCI-H460 and in the assay with HCT-116 was > 100 µM (inactive) throughout. The GI50 with RXF 393, in the assay on HL-60, in the assay on SK-OV-3, in the assay on PC-3, in the assay on KM12 and with SK-MEL-5 was > 100 µM (inactive) in each case.

As to `Cc1cc(C)c(N[S+]([O-])c2cccc(Cl)c2)c(C)c1` (configuration not stated), the GI50 in the assay with UACC-257, in the assay on ACHN, with Malme-3M, with UO-31, in the assay on DU-145 and with MOLT-4 was > 100 µM (inactive) each time. The GI50 in the assay with NCI-H460, with HCT-116, in the assay with RXF 393, in the assay on HL-60, with HT-29 and in the assay on PC-3 was > 100 µM (inactive) throughout. Also, the GI50 in the assay with BT-549 and in the assay with KM12 was > 100 µM (inactive) in each case.

Consider `CC(C)(C)c1cc(C(C)(C)C)c(SS(=O)(=O)O)c(O)c1O`, for which the GI50 was 33.7 µM (inactive) in the assay with T47D; 79.1 µM (inactive) in the assay on UACC-257; 31.6 µM (inactive) with ACHN; 97.5 µM (inactive) with Malme-3M; > 100 µM (inactive) in the assay on UO-31; 62.5 µM (inactive) with DU-145. Further, the GI50 is < 0.01 µM (active) in the assay with MOLT-4; 35.4 µM (inactive) in the assay with LOX IMVI; 10.9 µM (inactive) with NCI-H460; 33 µM (inactive) in the assay with HCT-116; 28.2 µM (inactive) with RXF 393; 65.6 µM (inactive) with HL-60. Moreover, the GI50 was 41.1 µM (inactive) with HT-29; > 100 µM (inactive) in the assay on SK-OV-3; 50.1 µM (inactive) in the assay on PC-3; > 100 µM (inactive) with BT-549; 41.8 µM (inactive) in the assay with KM12; 34 µM (inactive) in the assay with SK-MEL-5.

In the case of `CC/C(=C/OC)P1(=O)OC(C)(C)CN1C(C)(C)C` (configuration not stated), the GI50 in the assay on T47D, in the assay with UACC-257, with ACHN, in the assay on Malme-3M, in the assay on UO-31 and in the assay with DU-145 was > 100 µM (inactive) each time. The GI50 in the assay with LOX IMVI, in the assay with NCI-H460, with HCT-116, in the assay with HT-29, with SK-OV-3 and in the assay with PC-3 was > 100 µM (inactive) in each case. The GI50 in the assay on BT-549, with KM12 and in the assay with SK-MEL-5 was > 100 µM (inactive) each time.
